Converted amounts (≈) assume the structure as drawn.
What was measured:
Mannheimia haemolytica = test: minimum inhibitory concentration (MIC)
Protocol: (§1)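 Broth microdilution MIC (Sensititre BOPO7F bovine plate, CLSI methods) of 19 antimicrobials against field isolates of P. multocida, M. haemolytica, H. somni (deep nasopharyngeal swabs) and E. coli, Enterococcus spp. (rectal swabs) from weaned dairy heifers. Incubation 16-24 h at 35 C. MIC is the lowest concentration preventing visible growth. Values with <= or > lie at the tested range limits. Trimethoprim-sulfamethoxazole is given as the trimethoprim component of a 1:19 mixture.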

Enterococcus spp. = test: minimum inhibitory concentration (MIC)
Protocol: as §1

CCN1CCN(c2cc3c(cc2F)c(=O)c(C(=O)O)cn3C2CC2)CC1 [Enrofloxacin]
minimum inhibitory concentration [µg/mL]
Conditions | Enterococcus spp. | Mannheimia haemolytica
isolate (source animal id): 2 | 0.25 (≈ 0.696 µM) | –
isolate (source animal id): 8 | – | 0.5 (≈ 1.39 µM)
isolate (source animal id): 13 | – | 0.5 (≈ 1.39 µM)
isolate (source animal id): 18 | – | 0.5 (≈ 1.39 µM)
isolate (source animal id): 21 | – | 0.5 (≈ 1.39 µM)
isolate (source animal id): 25 | – | 0.5 (≈ 1.39 µM)
isolate (source animal id): 27 | – | 0.5 (≈ 1.39 µM)
isolate (source animal id): 28 | – | 1 (≈ 2.78 µM)
isolate (source animal id): 30 | – | 0.5 (≈ 1.39 µM)
isolate (source animal id): 31 | – | 1 (≈ 2.78 µM)
isolate (source animal id): 32 | – | 0.25 (≈ 0.696 µM)
isolate (source animal id): 34 | – | 0.5 (≈ 1.39 µM)
isolate (source animal id): 35 | > 2 | –
isolate (source animal id): 36 | – | 0.5 (≈ 1.39 µM)
isolate (source animal id): 37 | – | 1 (≈ 2.78 µM)
isolate (source animal id): 40 | – | 0.5 (≈ 1.39 µM)
isolate (source animal id): 41 | – | 0.5 (≈ 1.39 µM)
isolate (source animal id): 42 | 0.5 (≈ 1.39 µM) | –
isolate (source animal id): 43 | – | 0.5 (≈ 1.39 µM)
isolate (source animal id): 44 | 0.5 (≈ 1.39 µM) | –
isolate (source animal id): 46 | – | 0.5 (≈ 1.39 µM)
isolate (source animal id): 49 | – | 0.5 (≈ 1.39 µM)
isolate (source animal id): 50 | – | 0.5 (≈ 1.39 µM)
isolate (source animal id): 51 | – | 0.5 (≈ 1.39 µM)
isolate (source animal id): 52 | – | 0.5 (≈ 1.39 µM)
isolate (source animal id): 53 | – | 0.5 (≈ 1.39 µM)
isolate (source animal id): 55 | – | 0.5 (≈ 1.39 µM)
isolate (source animal id): 56 | – | 0.5 (≈ 1.39 µM)
isolate (source animal id): 57 | – | > 2
isolate (source animal id): 79 | 1 (≈ 2.78 µM) | –
isolate (source animal id): 88 | 0.25 (≈ 0.696 µM) | –
isolate (source animal id): 91 | 0.25 (≈ 0.696 µM) | –
isolate (source animal id): 92 | 1 (≈ 2.78 µM) | –
isolate (source animal id): 100 | – | 2 (≈ 5.56 µM)
isolate (source animal id): 103 | – | 0.5 (≈ 1.39 µM)
isolate (source animal id): 107 | – | 0.5 (≈ 1.39 µM)
isolate (source animal id): 108 | – | 0.5 (≈ 1.39 µM)
isolate (source animal id): 111 | 0.25 (≈ 0.696 µM) | –
isolate (source animal id): 112 | – | 0.5 (≈ 1.39 µM)
isolate (source animal id): 113 | – | > 2
isolate (source animal id): 121 | – | 0.5 (≈ 1.39 µM)
isolate (source animal id): 122 | 1 (≈ 2.78 µM) | 0.5 (≈ 1.39 µM)
isolate (source animal id): 123 | 0.5 (≈ 1.39 µM) | > 2
isolate (source animal id): 126 | – | 2 (≈ 5.56 µM)
isolate (source animal id): 133 | 1 (≈ 2.78 µM) | > 2
isolate (source animal id): 135 | – | > 2
isolate (source animal id): 138 | – | 2 (≈ 5.56 µM)
isolate (source animal id): 141 | – | > 2
isolate (source animal id): 142 | – | 1 (≈ 2.78 µM)
isolate (source animal id): 145 | – | 1 (≈ 2.78 µM)
isolate (source animal id): 149 | – | ≤ 0.12
isolate (source animal id): 151 | – | ≤ 0.12
isolate (source animal id): 152 | – | 1 (≈ 2.78 µM)
isolate (source animal id): 154 | – | ≤ 0.12
isolate (source animal id): 158 | 0.5 (≈ 1.39 µM) | –
isolate (source animal id): 159 | – | 1 (≈ 2.78 µM)
isolate (source animal id): 162 | – | 1 (≈ 2.78 µM)
isolate (source animal id): 168 | 0.5 (≈ 1.39 µM) | –
isolate (source animal id): 169 | 0.5 (≈ 1.39 µM) | –
isolate (source animal id): 170 | – | ≤ 0.12
isolate (source animal id): 171 | 0.5 (≈ 1.39 µM) | ≤ 0.12
isolate (source animal id): 172 | – | ≤ 0.12
isolate (source animal id): 173 | – | ≤ 0.12
isolate (source animal id): 175 | 1 (≈ 2.78 µM) | –
isolate (source animal id): 177 | 2 (≈ 5.56 µM) | –
isolate (source animal id): 179 | – | ≤ 0.12
isolate (source animal id): 180 | – | ≤ 0.12
isolate (source animal id): 181 | 0.5 (≈ 1.39 µM) | –
isolate (source animal id): 182 | 0.5 (≈ 1.39 µM) | –
isolate (source animal id): 183 | 0.5 (≈ 1.39 µM) | ≤ 0.12
isolate (source animal id): 186 | – | ≤ 0.12
isolate (source animal id): 187 | 0.5 (≈ 1.39 µM) | ≤ 0.12
isolate (source animal id): 188 | – | ≤ 0.12
isolate (source animal id): 190 | 0.5 (≈ 1.39 µM) | ≤ 0.12
isolate (source animal id): 191 | – | ≤ 0.12
isolate (source animal id): 192 | – | ≤ 0.12
isolate (source animal id): 194 | 0.5 (≈ 1.39 µM) | –
isolate (source animal id): 195 | 0.5 (≈ 1.39 µM) | –
isolate (source animal id): 197 | 0.5 (≈ 1.39 µM) | –
isolate (source animal id): 201 | – | ≤ 0.12
isolate (source animal id): 202 | – | ≤ 0.12
isolate (source animal id): 209 | – | ≤ 0.12
isolate (source animal id): 211 | 0.5 (≈ 1.39 µM) | ≤ 0.12
isolate (source animal id): 214 | 1 (≈ 2.78 µM) | –
isolate (source animal id): 220 | – | ≤ 0.12
isolate (source animal id): 221 | – | ≤ 0.12
isolate (source animal id): 222 | 0.5 (≈ 1.39 µM) | –
isolate (source animal id): 223 | 0.25 (≈ 0.696 µM) | ≤ 0.12
isolate (source animal id): 228 | 0.5 (≈ 1.39 µM) | –
isolate (source animal id): 230 | 0.5 (≈ 1.39 µM) | –
isolate (source animal id): 233 | – | 1 (≈ 2.78 µM)
isolate (source animal id): 235 | 0.5 (≈ 1.39 µM) | –
isolate (source animal id): 236 | 2 (≈ 5.56 µM) | –
isolate (source animal id): 237 | – | 1 (≈ 2.78 µM)
isolate (source animal id): 239 | 2 (≈ 5.56 µM) | –
isolate (source animal id): 241 | 0.5 (≈ 1.39 µM) | 1 (≈ 2.78 µM)
isolate (source animal id): 244 | 0.5 (≈ 1.39 µM) | –
isolate (source animal id): 246 | 0.5 (≈ 1.39 µM) | –
isolate (source animal id): 247 | 0.5 (≈ 1.39 µM) | –
isolate (source animal id): 250 | 0.25 (≈ 0.696 µM) | –
isolate (source animal id): 252 | > 2 | 0.5 (≈ 1.39 µM)
isolate (source animal id): 253 | – | 0.5 (≈ 1.39 µM)
isolate (source animal id): 259 | – | > 2
isolate (source animal id): 260 | – | 0.5 (≈ 1.39 µM)
isolate (source animal id): 262 | – | 1 (≈ 2.78 µM)
isolate (source animal id): 268 | 0.25 (≈ 0.696 µM) | –
isolate (source animal id): 282 | 1 (≈ 2.78 µM) | > 2
isolate (source animal id): 285 | 1 (≈ 2.78 µM) | –
isolate (source animal id): 287 | – | 0.5 (≈ 1.39 µM)
isolate (source animal id): 288 | – | ≤ 0.12
isolate (source animal id): 289 | 0.5 (≈ 1.39 µM) | –
isolate (source animal id): 290 | 0.5 (≈ 1.39 µM) | –
isolate (source animal id): 291 | – | ≤ 0.12
isolate (source animal id): 293 | – | 0.5 (≈ 1.39 µM)
isolate (source animal id): 296 | 0.5 (≈ 1.39 µM) | –
isolate (source animal id): 298 | 0.5 (≈ 1.39 µM) | 0.5 (≈ 1.39 µM)
isolate (source animal id): 299 | – | 0.5 (≈ 1.39 µM)
isolate (source animal id): 300 | – | ≤ 0.12
isolate (source animal id): 301 | 0.5 (≈ 1.39 µM) | –
isolate (source animal id): 302 | – | 0.5 (≈ 1.39 µM)
isolate (source animal id): 304 | – | 0.5 (≈ 1.39 µM)
isolate (source animal id): 306 | – | ≤ 0.12
isolate (source animal id): 308 | – | ≤ 0.12
isolate (source animal id): 309 | – | ≤ 0.12
isolate (source animal id): 310 | 1 (≈ 2.78 µM) | –
isolate (source animal id): 313 | – | 0.5 (≈ 1.39 µM)
isolate (source animal id): 318 | – | 0.25 (≈ 0.696 µM)
isolate (source animal id): 320 | 0.5 (≈ 1.39 µM) | ≤ 0.12
isolate (source animal id): 321 | – | 0.5 (≈ 1.39 µM)
isolate (source animal id): 323 | – | 0.5 (≈ 1.39 µM)
isolate (source animal id): 324 | – | 0.5 (≈ 1.39 µM)
isolate (source animal id): 326 | – | 0.5 (≈ 1.39 µM)
isolate (source animal id): 328 | – | 0.5 (≈ 1.39 µM)
isolate (source animal id): 329 | – | 0.5 (≈ 1.39 µM)
isolate (source animal id): 331 | 0.5 (≈ 1.39 µM) | –
isolate (source animal id): 333 | 0.5 (≈ 1.39 µM) | 0.5 (≈ 1.39 µM)
isolate (source animal id): 335 | – | 0.5 (≈ 1.39 µM)
isolate (source animal id): 338 | – | 0.5 (≈ 1.39 µM)
isolate (source animal id): 341 | > 2 | –

From the supplement of paper PMC8612539
